In patent publication US20200199102A1, “COMPOUNDS THAT PARTICIPATE IN COOPERATIVE BINDING AND USES THEREOF” (Revolution Medicines, Inc., priority 2017, published 2020):

What was measured:
FKBP12 [1] = target: T1, FKBP12 (Homo sapiens, UniProt P62942); experiment: SPR binding of compound (analyte) to immobilized FKBP12; settings: read-out: SPR affinity to FKBP12: KD; 25° C., Table 7
Procedure: This protocol utilizes Surface Plasmon Resonance (SPR) as a method to determine kinetics (KD, Ka, Kd) for the binding of compound (analyte) to immobilized FKBP12 (ligand).
Compound in 100% DMSO (in-house), 10×HBS-P+ buffer (GE Healthcare BR-1006-71), Assay buffer (1×HBS-P+ buffer, 1% DMSO), 12×HIS tagged FKBP12 (in-house).
Experiments are performed at 25° C. Stock solution of 12×HIS tagged FKBP12 is diluted to 100 nM in assay buffer (1% DMSO final). Approximately 500-600 RU of FKBP12 is immobilized on one of two flow cells of an activated NTA chip. The second flow cell is not activated as a reference for non-specific interaction of the analyte to the sensor chip. Various concentrations of compound (1 nM-1 μM range), serially diluted into the same assay buffer (1% DMSO final), are injected onto the FKBP12 surface and reference surface at a flow rate of 10 μl/min. The surface is regenerated between analyte injections with 350 mM EDTA.
The BiaEvaluation software program is used for data fitting. All data is reference subtracted against both the reference flow cell and a buffer injection. For kinetic analyses, data is locally fit to a 1:1 interaction model.
Experiments are performed at 25° C. Stock solution of 12×HIS tagged FKBP12 is diluted to 100 nM in assay buffer (1% DMSO final). Approximately 500-600 RU of FKBP12 is immobilized on one of two flow cells of an activated NTA chip. The second flow cell is not activated as a reference for non-specific interaction of the analyte to the sensor chip.

FKBP12 [2] = target: T1, FKBP12; experiment: AlphaLISA inhibition of binding of biotinylated FK506 to FLAG tagged FKBP12; design: made in house; settings: read-out: Binding affinity to FKBP12 (by displacement of FK506)
Excerpt: The binding of compounds of the invention to FKBP12 can be determined using the following protocol.
This protocol utilizes Perkin Elmers AlphaLISA technology platform to detect FKBP binders by measuring the inhibition of binding of biotinylated FK506 to FLAG tagged FKBP12.
10×TBST Buffer (Boston BioProducts IBB-181), Biotinylated FK506 (in-house), FLAG tagged FKBP (in-house); anti-FLAG Donor beads (PerkinElmer AS103) and Streptavidin Acceptor beads (PerkinElmer AL125); Compounds in DMSO (in-house), FK506.
Add 20 uL of 12.5 nM FKBP-FLAG working stock to each well of the 96-well plate. Add 1 uL of test compound (100% DMSO) to each well of the plate using the Janus MTD head and P20 tips (except control wells). Add 1 uL of DMSO to negative control wells and 1 uL of 50 uM FK506 solution to positive control wells. In the dark, add 20 uL of combined Donor/Acceptor beads to each well. Incubate in the dark for 30 minutes at room temperature. In the dark, add 10 uL of 5 nM biotinylated FK506 working stock to each well. Incubate in the dark for 60 minutes at room temperature. Protect plate from light until reading on Biotek Synergy2 Plate Reader; Alphalisa 96-well protocol (680 excitation/615 emission).

HeLa-FKBP12 cells = experiment: Biosensor cell permeability assay (FKBP destabilizing mutant), HeLa-FKBP12 cells; type: cell-based; settings: 72 hrs
Procedure: Cell permeability of compounds can be determined using the following protocol.
This protocol utilizes a modified FKBP or cyclophilin destabilizing mutant to determine the bioactivity of FKBP binding compounds or cyclophilin binding compounds in whole cell assay.
DMEM, DMEM without Phenol Red, 10% FBS, 1× Sodium Pyruvate, 1× Glutamax. Add 125 μl of media with compound per well.
Plate HeLa-FKBP12 cells (for FKBP binding compounds) or HeLa-CyclophilinA cells (for cyclophilin binding compounds) and seed overnight at 5 k/well (approximately ˜18 hrs.). Using a multi-channel pipet, take out the old media and add ˜125 ul of new media with compounds. Compounds are diluted using DMEM without Phenol Red, 10% FBS, 1× Sodium Pyruvate, 1× Glutamax. Add 125 μL of media with compound per well. Cells are treated with compounds at concentration: 30, 10, 3.33, 1.11, 0.37, 0.12, 0.04 and 0.013 uM. Time points are taken at 72 hrs and plate read using plate reader with excitation/emission: 575/620.
Cell binding/permeability is calculated in fold-change (Total RFU of treated samples/total RFU of DMSO treated samples or total RFU above background (Total RFU minus total RFU of DMSO treated samples).

T1 sequence (P62942 whole entry, species assumed): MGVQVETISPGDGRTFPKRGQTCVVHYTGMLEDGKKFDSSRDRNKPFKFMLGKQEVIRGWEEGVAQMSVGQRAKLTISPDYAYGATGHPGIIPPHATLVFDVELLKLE

## CCC1C=C(C)C(O)CCC(C)C=CC(O)C(C)C2CCC(C)C(O)(O2)C(=O)C(=O)N2CCCCC2C(=O)OC2C=CC(=CC2O)C=C(C)C1 (stereo not drawn) [Compound F10]
FKBP12 [1]
  Kd: 0.0172 µM
FKBP12 [2]
  IC50: 0.0211 µM
HeLa-FKBP12 cells
  IC50: > 1 µM

## CC1=CCC(O)CC(C(C)=CC(C)=CC2C=CC(O)C(O)C2)OC(=O)C2CCCCN2C(=O)CC2(O)OC(C(C)CC=CCC(O)C=C1)C(C)CC2C (stereo not drawn) [Compound F6]
FKBP12 [1]
  Kd: 0.141 µM
FKBP12 [2]
  IC50: 0.06 µM
HeLa-FKBP12 cells
  IC50: < 1 µM

## COC1C(O)CCC(CC(C)C2CCCC=CCC(C)=CCC3OC(O)(C(=O)C(=O)N4CCCCC4C(=O)O2)C(C)CC3C)C1O (stereo not drawn) [Compound F9]
FKBP12 [1]
  Kd: 0.00023 µM
FKBP12 [2]
  IC50: 0.0003 µM
HeLa-FKBP12 cells
  IC50: < 1 µM
